Measurements from PMC10610090, “The Synthetic Peptide GA-Hecate and Its Analogs Inhibit Multiple Steps of the Chikungunya Virus Infection Cycle In Vitro” (Pharmaceuticals, 2023).
Like-named read-outs stand apart in the source and are kept apart here. Peptide text beside a SMILES is read from it. * marks the point of attachment. Galloyl = O=C(c1cc(O)c(O)c(O)c1)*; X1 = CN(C)c1ccc(C(=O)*)cc1

Columns and labels:
[1] = MTT cytotoxicity assay in BHK-21 cells; format: cell-based; details: hamster
Protocol: (§1) Cytotoxicity in BHK-21 and Huh-7 cells was evaluated using the 3-(4,5-dimethylthiazol-2-yl)-2,5-diphenyltetrazolium bromide (MTT) assay as previously described. The cells (5 × 10^3 per well) were seeded in 96-well culture plates (TPP, Trasadingen, Switzerland). After 24 h, the cells were incubated with the peptides at concentrations of 1.6, 3.1, 6.3, 12.5, 25, 50, and 100 µM for 24 h. Then, the medium containing the peptides was removed, and 100 µL of MTT (Sigma-Aldrich, St. Louis, MO, USA) diluted in DMEM (Cultilab, Campinas, SP, Brazil) (1 mg/mL) was added to each well of the plate (1 mg/mL). After 30 min of incubation at 37 °C, the medium containing MTT (Sigma-Aldrich, St. Louis, MO, USA) was removed, and 100 µL of dimethylsulfoxide (DMSO, Synth, Diadema, SP, Brazil) was added to the cells. The plate was agitated at 200 rpm. After 5 min, the absorbance was measured at a wavelength of 572 nm on a plate reader (FLUOstar Omega/BMG LABTECH, Ortenberg, Germany). The CC50 values were calculated using GraphPad Prism 5.0 software (GraphPad Software, San Diego, CA, USA).
(§2) All the described experiments were performed in three independent events, each of which was carried out in three (cytotoxicity) and four (antiviral activity) technical replicates. The CC50 and EC50 values were determined by nonlinear regression of the dose-response curves (Log [peptide] × response). The statistical significance was determined employing the paired Student’s t-test for parametric results and the Mann–Whitney test for nonparametric data using GraphPad Prism 5.0 software (GraphPad Software, San Diego, CA, USA). A p-value < 0.05 was considered statistically significant.

[2] = MTT cytotoxicity assay in Huh-7 cells; format: cell-based; details: human
Protocol: as §1, §2

[3] = test system: CHIKV-NLuc; format: cell-based, Chikungunya virus; details: CHIKV-NLuc MOI 0.1, 16 h, NLuc activity
Protocol: Measurement of the activity of the virus-encoded NanoLuciferase (NLuc) reporter was used to evaluate the antiviral activity of the peptides against CHIKV-NLuc at the end of every assay with the peptides. Cells were infected with CHIKV-NLuc, and the supernatant was aspirated 16 h post-infection (h.p.i.), and each well of the plate was washed with PBS solution. Then, 30 µL of Renilla Luciferase Assay Lysis Buffer (Promega, Madison, WI, USA) was added to the cells. After 30 min, 50 μL of substrate for Renilla Luciferase (Renilla Luciferase assay reagent, Promega, Madison, WI, USA) was automatically injected in the wells into the plate reader (FLUOstar Omega/BMG LABTECH, Ortenberg, Germany), and the light intensity reading was performed. The values obtained are shown as the percentage of protein NLuc activity in the control (samples treated with sterile water).
The effects of the peptides on the CHIKV infectious cycle were analyzed as previously described. BHK-21 and Huh-7 cells (1 × 10^4 per well) were seeded in 96-well white culture plates (Greiner Bio-One, Americana, SP, Brazil) for 24 h. Then, the virus at an MOI of 0.1 and the peptides at the MNTC were simultaneously added to the cells. The plate was incubated at 37 °C for 16 h, and then antiviral activity against CHIKV was evaluated through NLuc activity. […] The SI was calculated using the ratio CC50/EC50.
as §2

[4] = test system: BHK-21 and Huh-7 cells; test: MTT cytotoxicity, maximum nontoxic concentration over both cell lines; format: cell-based, hamster; human
Protocol: The cytotoxicity of the peptides GA-Hecate, PSSct1905, and PSSct1910 was evaluated in baby hamster kidney fibroblast cells (BHK-21) and human hepatocarcinoma epithelial cells (Huh-7). We defined the maximum nontoxic concentration (MNTC), expressed in µM, as the highest peptide concentration that kept at least 80% of BHK-21 and Huh-7 cells viable within 24 h.
as §1, with “The plate was agitated at 200 rpm.” left out

Compound	CC50 at 24 h [1] [µM]	CC50 at 24 h [2] [µM]	EC50 ([3]; BHK-21 cells) [µM]	EC50 ([3]; Huh-7 cells) [µM]	increase in the CC50 value compared to GA-Hecate ([4]; more prominent in BHK-21 cells)	MNTC (maximum nontoxic concentration) ([4]; highest concentration keeping at least 80% of BHK-21 and Huh-7 cells viable within 24 h, MTT) [µM]
CC(C)C[C@H](NC(=O)[C@H](C)NC(=O)[C@H](CCCCN)NC(=O)[C@H](CCCCN)NC(=O)[C@H](CC(C)C)NC(=O)[C@H](C)NC(=O)[C@H](CCCCN)NC(=O)[C@H](CCCCN)NC(=O)[C@H](CC(C)C)NC(=O)[C@H](CCCCN)NC(=O)[C@H](CCCCN)NC(=O)[C@H](CC(C)C)NC(=O)[C@H](C)NC(=O)[C@H](CCCCN)NC(=O)[C@H](CCCCN)NC(=O)[C@H](CC(C)C)NC(=O)[C@H](C)NC(=O)[C@H](CCCCN)NC(=O)[C@H](CC(C)C)NC(=O)[C@H](C)NC(=O)[C@H](CC(C)C)NC(=O)[C@H](C)NC(=O)[C@H](Cc1ccccc1)NC(=O)c1cc(O)c(O)c(O)c1)C(N)=O [GA-Hecate] (Galloyl-FALALKALKKALKKLKKALKKAL-NH2)	23.3	221	5.7	4.5	–	–
CC(C)C[C@H](NC(=O)[C@H](CCCCN)NC(=O)[C@H](CCCCN)NC(=O)[C@H](CC(C)C)NC(=O)[C@H](C)NC(=O)[C@H](CCCCN)NC(=O)[C@H](CCCCN)NC(=O)[C@H](CC(C)C)NC(=O)[C@H](C)NC(=O)[C@H](CCCCN)NC(=O)[C@H](CC(C)C)NC(=O)[C@H](C)NC(=O)[C@H](CC(C)C)NC(=O)[C@H](C)NC(=O)[C@H](Cc1ccccc1)NC(=O)c1cc(O)c(O)c(O)c1)C(=O)O [PSSct1905, GA-FALALKALKKALKKL-COOH] (Galloyl-FALALKALKKALKKL-OH)	56.5	205	8.4	7.1	approximately 2 fold	–
CC(C)C[C@H](NC(=O)[C@H](C)NC(=O)[C@H](CCCCN)NC(=O)[C@H](CCCCN)NC(=O)[C@H](CC(C)C)NC(=O)[C@H](C)NC(=O)[C@H](CCCCN)NC(=O)[C@H](CCCCN)NC(=O)[C@H](CC(C)C)NC(=O)[C@H](CCCCN)NC(=O)[C@H](CCCCN)NC(=O)[C@H](CC(C)C)NC(=O)[C@H](C)NC(=O)[C@H](CCCCN)NC(=O)[C@H](CCCCN)NC(=O)[C@H](CC(C)C)NC(=O)[C@H](C)NC(=O)[C@H](CCCCN)NC(=O)[C@H](CC(C)C)NC(=O)[C@H](C)NC(=O)[C@H](CC(C)C)NC(=O)[C@H](C)NC(=O)[C@H](Cc1ccccc1)NC(=O)c1ccc(N(C)C)cc1)C(N)=O [PSSct1910] (X1-FALALKALKKALKKLKKALKKAL-NH2)	5.4	7.7	1.1	0.2	–	1.6
